What was measured:
Assay type in all cases: functional
[1] = Antiproliferative activity against human OVACR3 cells by sulforhodamine B assay relative to control
DU-145 = assay: Antiproliferative activity against human DU145 cells by sulforhodamine B assay relative to control
KM12 = assay: Antiproliferative activity against human KM12 cells by sulforhodamine B assay relative to control
[2] = Antiproliferative activity against human OVACR8 cells by sulforhodamine B assay relative to control
DMS-273 = assay: Antiproliferative activity against human DMS273 cells by sulforhodamine B assay relative to control
U-251 = assay: Antiproliferative activity against human U251 cells by sulforhodamine B assay relative to control
HCT-15 = assay: Antiproliferative activity against human HCT15 cells by sulforhodamine B assay relative to control
St-4 = assay: Antiproliferative activity against human St4 cells by sulforhodamine B assay relative to control
MKN-45 = assay: Antiproliferative activity against human MKN45 cells by sulforhodamine B assay relative to control
SF-539 = assay: Antiproliferative activity against human SF539 cells by sulforhodamine B assay relative to control
MKN-7 = assay: Antiproliferative activity against human MKN7 cells by sulforhodamine B assay relative to control
[3] = Antiproliferative activity against human BSY1 cells by sulforhodamine B assay relative to control; settings: BSY-1
MKN-28 = assay: Antiproliferative activity against human MKN28 cells by sulforhodamine B assay relative to control
NCI-H460 = assay: Antiproliferative activity against human NCI-H460 cells by sulforhodamine B assay relative to control
SNB-78 = assay: Antiproliferative activity against human SNB78 cells by sulforhodamine B assay relative to control
HCC 2998 = assay: Antiproliferative activity against human HCC2998 cells by sulforhodamine B assay relative to control
ACHN = assay: Antiproliferative activity against human ACHN cells by sulforhodamine B assay relative to control
MCF7 = assay: Antiproliferative activity against human MCF7 cells by sulforhodamine B assay relative to control
SF-295 = assay: Antiproliferative activity against human SF295 cells by sulforhodamine B assay relative to control
A549 = assay: Antiproliferative activity against human A549 cells by sulforhodamine B assay relative to control
[4] = Antiproliferative activity against human HBC5 cells by sulforhodamine B assay relative to control
SF-268 = assay: Antiproliferative activity against human SF268 cell by sulforhodamine B assay relative to control
SNB-75 = assay: Antiproliferative activity against human SNB75 cells by sulforhodamine B assay relative to control
[5] = Antiproliferative activity against human RXF631L cells by sulforhodamine B assay relative to control; settings: RXF 631
MKN-74 = assay: Antiproliferative activity against human MKN74 cells by sulforhodamine B assay relative to control
NCI-H226 = assay: Antiproliferative activity against human NCI-H226 cells by sulforhodamine B assay relative to control
DMS-114 = assay: Antiproliferative activity against human DMS114 cells by sulforhodamine B assay relative to control
[6] = Antiproliferative activity against human MKN1 cells by sulforhodamine B assay relative to control; settings: MKN-1
HCT-116 = assay: Antiproliferative activity against human HCT116 cells by sulforhodamine B assay relative to control
NCI-H23 = assay: Antiproliferative activity against human NCI-H23 cells by sulforhodamine B assay relative to control
SK-OV-3 = assay: Antiproliferative activity against human SKOV3 cells by sulforhodamine B assay relative to control
PC-3 = assay: Antiproliferative activity against human PC3 cells by sulforhodamine B assay relative to control
HT-29 = assay: Antiproliferative activity against human HT29 cells by sulforhodamine B assay relative to control
[7] = Antiproliferative activity against human OVACR4 cells by sulforhodamine B assay relative to control
NCI-H522 = assay: Antiproliferative activity against human NCI-H522 cells by sulforhodamine B assay relative to control
LOX IMVI = assay: Antiproliferative activity against human LOX IMVI cells by sulforhodamine B assay relative to control
[8] = Antiproliferative activity against human HBC4 cells by sulforhodamine B assay relative to control
[9] = Antiproliferative activity against human OVACR5 cells by sulforhodamine B assay relative to control
MDA-MB-231 = assay: Antiproliferative activity against human MDA-MB-231 cells by sulforhodamine B assay relative to control

SMILES	GI50 (DU-145) [µM]	GI50 (U-251) [µM]	GI50 (HCT-15) [µM]	GI50 (MKN-45) [µM]	GI50 (MKN-7) [µM]	GI50 (MKN-28) [µM]	GI50 (NCI-H460) [µM]	GI50 (HCC 2998) [µM]	GI50 (ACHN) [µM]	GI50 (MCF7) [µM]	GI50 (A549) [µM]	GI50 [1] [µM]	GI50 (KM12) [µM]	GI50 [2] [µM]	GI50 (DMS-273) [µM]	GI50 (St-4) [µM]	GI50 (SF-539) [µM]	GI50 [3] [µM]	GI50 (SNB-78) [µM]	GI50 (SF-295) [µM]	also measured
CCCCCCCCCCCC[C@@H](O)[C@H]1CC[C@H]([C@H](O)CCCCCCCCCCCCc2ncccn2)O1	> 100	> 100	> 100	> 100	27	48	> 100	> 100	> 100	79	> 100	> 100	> 100	> 100	92	> 100	41	> 100	> 100	> 100	GI50 [4]: 50 µM; GI50 (SF-268): > 100 µM; GI50 (SNB-75): 32 µM; GI50 [5]: > 100 µM; GI50 (MKN-74): 69 µM; GI50 (NCI-H226): 30 µM; GI50 (DMS-114): 16 µM; GI50 [6]: > 100 µM; GI50 (HCT-116): > 100 µM; GI50 (NCI-H23): 28 µM; GI50 (SK-OV-3): 74 µM; GI50 (PC-3): > 68 µM; GI50 (HT-29): > 100 µM; GI50 [7]: 38 µM; GI50 (NCI-H522): 17 µM; GI50 (LOX IMVI): 12 µM; GI50 [8]: > 100 µM; GI50 [9]: > 100 µM; GI50 (MDA-MB-231): > 100 µM
CCCCCCCCCCCC[C@@H](O)[C@H]1CC[C@H]([C@H](O)CCCCCCCCCCCCc2cnc(N)nc2)O1	> 100	> 100	> 100	> 100	9.4	40	> 100	89	> 100	> 100	> 100	> 100	> 100	90	> 100	> 100	62	> 100	> 100	56	GI50 [4]: > 100 µM; GI50 (SF-268): > 100 µM; GI50 (SNB-75): 27 µM; GI50 [5]: > 100 µM; GI50 (MKN-74): > 100 µM; GI50 (NCI-H226): 44 µM; GI50 (DMS-114): 4.8 µM; GI50 [6]: > 100 µM; GI50 (HCT-116): > 100 µM; GI50 (NCI-H23): 36 µM; GI50 (SK-OV-3): 56 µM; GI50 (PC-3): > 100 µM; GI50 (HT-29): 90 µM; GI50 [7]: > 100 µM; GI50 (NCI-H522): 22 µM; GI50 (LOX IMVI): 58 µM; GI50 [8]: > 100 µM; GI50 [9]: > 100 µM; GI50 (MDA-MB-231): > 100 µM
CCCCCCCCCCCC[C@@H](O)[C@H]1CC[C@H]([C@H](O)CCCCCCCCCCCCC2=C[C@H](C)OC2=O)O1 [REL-SOLAMIN]	> 100	> 100	> 100	> 100	13	14	> 100	> 100	> 100	71	> 100	> 100	> 100	> 100	> 100	> 100	> 100	> 100	> 100	40	GI50 [4]: > 100 µM; GI50 (SF-268): > 100 µM; GI50 (SNB-75): > 100 µM; GI50 [5]: > 100 µM; GI50 (MKN-74): > 100 µM; GI50 (NCI-H226): > 100 µM; GI50 (DMS-114): 4.3 µM; GI50 [6]: > 100 µM; GI50 (HCT-116): > 100 µM; GI50 (NCI-H23): 73 µM; GI50 (SK-OV-3): > 100 µM; GI50 (PC-3): > 100 µM; GI50 (HT-29): > 100 µM; GI50 [7]: > 100 µM; GI50 (NCI-H522): 58 µM; GI50 (LOX IMVI): 29 µM; GI50 [8]: > 100 µM; GI50 [9]: > 100 µM; GI50 (MDA-MB-231): > 100 µM

More lines, main results first:

GI50 (DU-145) [µM]	GI50 (U-251) [µM]	GI50 (HCT-15) [µM]	GI50 (MKN-45) [µM]	GI50 (MKN-7) [µM]	GI50 (MKN-28) [µM]	GI50 (NCI-H460) [µM]	GI50 (HCC 2998) [µM]	GI50 (ACHN) [µM]	GI50 (MCF7) [µM]	GI50 (A549) [µM]	SMILES	GI50 [1] [µM]	GI50 (KM12) [µM]	GI50 [2] [µM]	GI50 (DMS-273) [µM]	GI50 (St-4) [µM]	GI50 (SF-539) [µM]	GI50 [3] [µM]	GI50 (SNB-78) [µM]	GI50 (SF-295) [µM]	also measured
90	61	47	50	6.1	13	40	28	40	34	42	CCCCCCCCCCCC[C@@H](O)[C@H]1CC[C@H]([C@H](O)CCCCCCCCCCCCc2cncnc2)O1	29	36	29	28	39	28	34	52	25	GI50 [4]: 17 µM; GI50 (SF-268): 49 µM; GI50 (SNB-75): 28 µM; GI50 [5]: > 43 µM; GI50 (MKN-74): 38 µM; GI50 (NCI-H226): 22 µM; GI50 (DMS-114): 4.1 µM; GI50 [6]: 32 µM; GI50 (HCT-116): 28 µM; GI50 (NCI-H23): 11 µM; GI50 (SK-OV-3): 33 µM; GI50 (PC-3): 35 µM; GI50 (HT-29): 33 µM; GI50 [7]: 22 µM; GI50 (NCI-H522): 13 µM; GI50 (LOX IMVI): 16 µM; GI50 [8]: 56 µM; GI50 [9]: > 100 µM; GI50 (MDA-MB-231): > 100 µM
> 100	> 100	> 100	> 100	6.2	4.4	> 100	80	88	27	31	CCCCCCCCCCCC[C@@H](O)[C@H]1CC[C@H]([C@H](O)CCCCCCCCCCCCc2ccnn2C)O1	> 100	71	> 100	49	65	37	32	> 100	24	GI50 [4]: 69 µM; GI50 (SF-268): > 100 µM; GI50 (SNB-75): > 100 µM; GI50 [5]: > 100 µM; GI50 (MKN-74): 23 µM; GI50 (NCI-H226): 52 µM; GI50 (DMS-114): 0.55 µM; GI50 [6]: > 100 µM; GI50 (HCT-116): 9.2 µM; GI50 (NCI-H23): 0.91 µM; GI50 (SK-OV-3): 77 µM; GI50 (PC-3): > 100 µM; GI50 (HT-29): 76 µM; GI50 [7]: 37 µM; GI50 (NCI-H522): 3.8 µM; GI50 (LOX IMVI): > 100 µM; GI50 [8]: > 100 µM; GI50 [9]: > 100 µM; GI50 (MDA-MB-231): 32 µM
> 100	> 100	> 100	> 100	5.4	19	> 100	> 100	> 100	> 100	> 100	CCCCCCCCCCCC[C@@H](O)[C@H]1CC[C@H]([C@H](O)CCCCCCCCCCCCc2cnn(C)c2)O1	> 100	> 100	> 100	> 100	> 100	37	> 100	81	24	GI50 [4]: > 100 µM; GI50 (SF-268): > 100 µM; GI50 (SNB-75): 23 µM; GI50 [5]: > 100 µM; GI50 (MKN-74): > 100 µM; GI50 (NCI-H226): 56 µM; GI50 (DMS-114): 2.1 µM; GI50 [6]: > 100 µM; GI50 (HCT-116): 70 µM; GI50 (NCI-H23): 13 µM; GI50 (SK-OV-3): > 100 µM; GI50 (PC-3): > 100 µM; GI50 (HT-29): > 100 µM; GI50 [7]: > 100 µM; GI50 (NCI-H522): 12 µM; GI50 (LOX IMVI): 9.5 µM; GI50 [8]: > 100 µM; GI50 [9]: > 100 µM; GI50 (MDA-MB-231): > 100 µM

— ChEMBL document CHEMBL1141502, “Synthesis of hybrid acetogenins, alpha,beta-unsaturated-gamma-lactone-free nitrogen-containing heterocyclic analogues, and their cytotoxicity against human cancer cell lines” (2008)
